Results taken from ChEMBL document CHEMBL1201862, “PubChem BioAssay data set” (2004).
Values joined by “and” are separate entries in the source; they are usually repeats but may differ in a detail not shown here. Identical values can stand only once.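 How tested: cells in 96-well plates exposed to compound for 48 hours at five concentrations. Here, GI50 denotes the concentration required for 50% inhibition of growth.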 Active and inactive are the calls of the source. Cut-off read from the data, not from the text of the source: active = GI50 up to about 1.1 µM and inactive = higher.

Tests used:
Assay in all cases: growth of human tumour cells (NCI), 48 h
M14 = tested on: M14
RXF 393 = tested on: RXF 393
HCC 2998 = tested on: HCC 2998
K562 = tested on: K562
MDA-MB-231 = tested on: MDA-MB-231
UACC-62 = tested on: UACC-62
RPMI-8226 = tested on: RPMI-8226
Malme-3M = tested on: Malme-3M
OVCAR-8 = tested on: OVCAR-8
T47D = tested on: T47D
SR = tested on: SR
786-0 = tested on: 786-0
MOLT-4 = tested on: MOLT-4
KM12 = tested on: KM12
HL-60 = tested on: HL-60
HCT-15 = tested on: HCT-15
SN12C = tested on: SN12C
UACC-257 = tested on: UACC-257
SK-MEL-5 = tested on: SK-MEL-5
SK-MEL-28 = tested on: SK-MEL-28
SF-268 = tested on: SF-268
SW-620 = tested on: SW-620
HT-29 = tested on: HT-29
HOP-62 = tested on: HOP-62
CAKI-1 = tested on: CAKI-1
SF-295 = tested on: SF-295
MDA-N = tested on: MDA-N
TK-10 = tested on: TK-10
IGROV-1 = tested on: IGROV-1
NCI-H23 = tested on: NCI-H23
SK-OV-3 = tested on: SK-OV-3
PC-3 = tested on: PC-3
DU-145 = tested on: DU-145
EKVX = tested on: EKVX
SNB-75 = tested on: SNB-75
COLO 205 = tested on: COLO 205
A549 = tested on: A549
MCF7 = tested on: MCF7
CCRF-CEM = tested on: CCRF-CEM
NCI-H226 = tested on: NCI-H226
OVCAR-4 = tested on: OVCAR-4
U-251 = tested on: U-251
Hs-578T = tested on: Hs-578T
OVCAR-3 = tested on: OVCAR-3
UO-31 = tested on: UO-31
OVCAR-5 = tested on: OVCAR-5
NCI-H460 = tested on: NCI-H460
NCI/ADR-RES = tested on: NCI/ADR-RES
LOX IMVI = tested on: LOX IMVI
MDA-MB-435 = tested on: MDA-MB-435
HCT-116 = tested on: HCT-116
NCI-H522 = tested on: NCI-H522
A498 = tested on: A498
ACHN = tested on: ACHN
SK-MEL-2 = tested on: SK-MEL-2
SNB-19 = tested on: SNB-19
HOP-92 = tested on: HOP-92
SF-539 = tested on: SF-539

Question: With `CC(C)(C)[Si](C)(C)Oc1cc(CO)cc2c1cc(=N)o[n+]2[O-]` as the compound, how does the GI50 (M14) read?
Answer: The GI50 was > 10 µM (inactive).

Question: What about the GI50 (RXF 393) of the same compound?
Answer: The GI50 was 3.96 µM (inactive).

Question: And the GI50 (HCC 2998)?
Answer: The GI50 was 9.35 µM (inactive).

Question: And the GI50 (K562)?
Answer: The GI50 was 4.53 µM (inactive).

Question: What about the GI50 (MDA-MB-231) of the same compound?
Answer: The GI50 was > 10 µM (inactive).

Question: And the GI50 (UACC-62)?
Answer: The GI50 was > 10 µM (inactive).

Question: And the GI50 (RPMI-8226)?
Answer: Its GI50 is 6.22 µM (inactive).

Question: And the GI50 (Malme-3M)?
Answer: Its GI50 is > 10 µM (inactive).

Question: What about the GI50 (OVCAR-8) of the same compound?
Answer: Its GI50 is > 10 µM (inactive).

Question: And the GI50 (T47D)?
Answer: The GI50 was 4.8 µM (inactive).

Question: What about the GI50 (SR) of the same compound?
Answer: Its GI50 is 2.48 µM (inactive).

Question: What about the GI50 (786-0) of the same compound?
Answer: Its GI50 is > 10 µM (inactive).

Question: And the GI50 (MOLT-4)?
Answer: Its GI50 is 2.61 µM (inactive).

Question: And the GI50 (KM12)?
Answer: The GI50 was 4.1 µM (inactive).

Question: What about the GI50 (HL-60) of the same compound?
Answer: The GI50 was 3.61 µM (inactive).

Question: What about the GI50 (HCT-15) of the same compound?
Answer: The GI50 was 5.61 µM.

Question: What about the GI50 (SN12C) of the same compound?
Answer: Its GI50 is 5.56 µM (inactive).

Question: What about the GI50 (UACC-257) of the same compound?
Answer: Its GI50 is > 10 µM (inactive).

Question: And the GI50 (SK-MEL-5)?
Answer: The GI50 was > 10 µM (inactive).

Question: What about the GI50 (SK-MEL-28) of the same compound?
Answer: The GI50 was > 10 µM (inactive).

Question: And the GI50 (SF-268)?
Answer: The GI50 was 6.03 µM (inactive).

Question: And the GI50 (SW-620)?
Answer: The GI50 was > 10 µM (inactive).

Question: And the GI50 (HT-29)?
Answer: The GI50 was 4.18 µM (inactive).

Question: What about the GI50 (HOP-62) of the same compound?
Answer: Its GI50 is > 10 µM (inactive).

Question: And the GI50 (CAKI-1)?
Answer: The GI50 was > 10 µM (inactive).

Question: And the GI50 (SF-295)?
Answer: Its GI50 is > 10 µM (inactive).

Question: And the GI50 (MDA-N)?
Answer: Its GI50 is > 10 µM (inactive).

Question: What about the GI50 (TK-10) of the same compound?
Answer: Its GI50 is > 10 µM (inactive).

Question: What about the GI50 (IGROV-1) of the same compound?
Answer: The GI50 was 8.15 µM (inactive).

Question: And the GI50 (NCI-H23)?
Answer: Its GI50 is 6.97 µM (inactive).

Question: What about the GI50 (SK-OV-3) of the same compound?
Answer: The GI50 was > 10 µM (inactive).

Question: What about the GI50 (PC-3) of the same compound?
Answer: The GI50 was 4.01 µM (inactive).

Question: And the GI50 (DU-145)?
Answer: Its GI50 is > 10 µM (inactive).

Question: What about the GI50 (EKVX) of the same compound?
Answer: The GI50 was > 10 µM (inactive).

Question: What about the GI50 (SNB-75) of the same compound?
Answer: The GI50 was > 10 µM (inactive).

Question: What about the GI50 (COLO 205) of the same compound?
Answer: Its GI50 is > 10 µM (inactive).

Question: What about the GI50 (A549) of the same compound?
Answer: Its GI50 is > 10 µM (inactive).

Question: What about the GI50 (MCF7) of the same compound?
Answer: Its GI50 is 2.72 µM (inactive).

Question: What about the GI50 (CCRF-CEM) of the same compound?
Answer: The GI50 was 2.84 µM (inactive).

Question: Which results are given for `COc1cc(C2SC(C)C(=O)N2c2ccc(-c3csc(NS(=O)(=O)c4ccc(Cl)c(OC)c4)n3)cc2)ccc1O` (stereo unspecified)?
Answer: GI50 (M14): > 100 µM (inactive); GI50 (RXF 393): > 100 µM (inactive); GI50 (NCI-H226): > 100 µM (inactive); GI50 (OVCAR-4): 26.3 µM (inactive); GI50 (U-251): 46.5 µM (inactive); GI50 (Hs-578T): 54.1 µM (inactive); GI50 (OVCAR-3): 56.4 µM (inactive); GI50 (K562): 34 µM (inactive); GI50 (MDA-MB-231): > 100 µM (inactive); GI50 (UACC-62): 25.4 µM (inactive); GI50 (UO-31): > 100 µM (inactive); GI50 (Malme-3M): 27.8 µM (inactive); GI50 (OVCAR-5): > 100 µM (inactive); GI50 (OVCAR-8): 29.7 µM (inactive); GI50 (T47D): 40.5 µM (inactive); GI50 (SR): 23.9 µM (inactive); GI50 (786-0): 67.3 µM (inactive); GI50 (MOLT-4): 25.1 µM (inactive); GI50 (KM12): 22.5 µM (inactive); GI50 (HL-60): 48.2 µM (inactive); GI50 (NCI-H460): > 100 µM (inactive); GI50 (HCT-15): 33.9 µM; GI50 (SN12C): 20.6 µM (inactive); GI50 (UACC-257): 85.7 µM (inactive); GI50 (SK-MEL-5): > 100 µM (inactive); GI50 (SK-MEL-28): > 100 µM (inactive); GI50 (SF-268): 29.4 µM (inactive); GI50 (NCI/ADR-RES): > 100 µM (inactive); GI50 (SW-620): 31.8 µM (inactive); GI50 (LOX IMVI): 31.3 µM (inactive); GI50 (MDA-MB-435): > 100 µM (inactive); GI50 (HT-29): > 100 µM (inactive); GI50 (HCT-116): 31.8 µM (inactive); GI50 (HOP-62): > 100 µM (inactive); GI50 (CAKI-1): > 100 µM (inactive); GI50 (SF-295): > 100 µM (inactive); GI50 (MDA-N): 41.2 µM (inactive); GI50 (TK-10): > 100 µM (inactive); GI50 (IGROV-1): 44.9 µM (inactive); GI50 (NCI-H522): 21.7 µM (inactive); GI50 (NCI-H23): 22.6 µM (inactive); GI50 (A498): > 100 µM (inactive); GI50 (ACHN): > 100 µM (inactive); GI50 (SK-MEL-2): 48.5 µM (inactive); GI50 (SK-OV-3): > 100 µM (inactive); GI50 (SNB-19): > 100 µM (inactive); GI50 (PC-3): > 100 µM (inactive); GI50 (DU-145): > 100 µM (inactive); GI50 (SNB-75): 19.7 µM (inactive); GI50 (HOP-92): 24.4 µM (inactive); GI50 (COLO 205): > 100 µM (inactive); GI50 (A549): > 100 µM (inactive); GI50 (MCF7): 38.4 µM (inactive); GI50 (CCRF-CEM): 14.6 µM (inactive); GI50 (SF-539): 32.7 µM (inactive)

Question: What does the source list for `CC(=O)OCC1OC(n2c(=S)n(-c3ccc(C)cc3)c(=O)c3ccccc32)C(OC(C)=O)C(OC(C)=O)C1OC(C)=O` (stereo unspecified)?
Answer: GI50 (RXF 393): 83 µM (inactive) and 67 µM (inactive); GI50 (RPMI-8226): 86.3 µM (inactive) and 49.1 µM (inactive); GI50 (UO-31): 62.4 µM (inactive) and 58.1 µM (inactive); GI50 (SR): 23.7 µM (inactive); GI50 (MOLT-4): 65.3 µM (inactive); GI50 (TK-10): 29 µM (inactive); GI50 (HOP-92): 31.6 µM (inactive) and 30.4 µM (inactive)
